≈ marks a conversion by molar mass, not a printed value. Calls of active or inactive are those of the source. No cut-off for these calls is given here.
Assays:
Format in all cases: functional
Aspergillus fumigatus [1] = assay: Antifungal activity against Aspergillus fumigatus MTCC 343 at 100 ug/ml after 28 to 30 hr by cup-plate method; conditions: for zone of inhibition at 100 µg/mL: read-out: IZ
Salmonella typhi = assay: Antibacterial activity against Salmonella enterica subsp. enterica serovar Typhi MTCC 733 at 100 ug/ml after 16 to 18 hr by cup-plate method; conditions: read-out: IZ
Aspergillus flavus [2] = assay: Antifungal activity against Aspergillus flavus MTCC 277 at 100 ug/ml after 28 to 30 hr by cup-plate method; conditions: read-out: IZ
Bacillus subtilis [3] = assay: Antibacterial activity against Bacillus subtilis MTCC 441 after 16 hr by cup-plate method; conditions: MTCC 441, 16 h
Aspergillus flavus [4] = assay: Antifungal activity against Aspergillus flavus MTCC 277 after 28 to 30 hr by cup-plate method
Escherichia coli [5] = assay: Antibacterial activity against Escherichia coli MTCC 443 at 100 ug/ml after 16 to 18 hr by cup-plate method; conditions: read-out: IZ
Pseudomonas aeruginosa [6] = assay: Antibacterial activity against Pseudomonas aeruginosa MTCC 424 after 16 hr by cup-plate method; conditions: MTCC 424, 16 h
Candida albicans [7] = assay: Antifungal activity against Candida albicans MTCC 227 at 100 ug/ml after 28 to 30 hr by cup-plate method; conditions: read-out: IZ
[8] = test system: Staphylococcus epidermidis; assay: Antibacterial activity against Staphylococcus epidermidis MTCC 435 at 100 ug/ml after 16 to 18 hr by cup-plate method; conditions: read-out: IZ
Pseudomonas aeruginosa [9] = assay: Antibacterial activity against Pseudomonas aeruginosa MTCC 424 at 100 ug/ml after 16 to 18 hr by cup-plate method; conditions: read-out: IZ
Aspergillus niger [10] = assay: Antifungal activity against Aspergillus niger MTCC 282 after 28 to 30 hr by cup-plate method
Aspergillus niger [11] = assay: Antifungal activity against Aspergillus niger MTCC 282 at 100 ug/ml after 28 to 30 hr by cup-plate method; conditions: for zone of inhibition at 100 µg/mL: read-out: IZ
Klebsiella pneumoniae [12] = assay: Antibacterial activity against Klebsiella pneumoniae MTCC 432 after 16 hr by cup-plate method; conditions: MTCC 432, 16 h
Bacillus subtilis [13] = assay: Antibacterial activity against Bacillus subtilis MTCC 441 at 100 ug/ml after 16 to 18 hr by cup-plate method; conditions: read-out: IZ
[14] = test system: Staphylococcus epidermidis; assay: Antibacterial activity against Staphylococcus epidermidis MTCC 435 after 16 hr by cup-plate method; conditions: MTCC 435, 16 h
Klebsiella pneumoniae [15] = assay: Antibacterial activity against Klebsiella pneumoniae MTCC 432 at 100 ug/ml after 16 to 18 hr by cup-plate method; conditions: read-out: IZ
Candida albicans [16] = assay: Antifungal activity against Candida albicans MTCC 227 after 28 to 30 hr by cup-plate method
Staphylococcus aureus [17] = assay: Antibacterial activity against Staphylococcus aureus MTCC 096 after 16 hr by cup-plate method; conditions: MTCC 096, 16 h
Aspergillus fumigatus [18] = assay: Antifungal activity against Aspergillus fumigatus MTCC 343 after 28 to 30 hr by cup-plate method
Staphylococcus aureus [19] = assay: Antibacterial activity against Staphylococcus aureus MTCC 096 at 100 ug/ml after 16 to 18 hr by cup-plate method; conditions: read-out: IZ
Escherichia coli [20] = assay: Antibacterial activity against Escherichia coli MTCC 443 after 16 hr by cup-plate method; conditions: MTCC 443, 16 h

Compound	zone of inhibition at 100 µg/mL (Salmonella typhi)	zone of inhibition at 100 µg/mL (Aspergillus flavus [2])	MIC (Bacillus subtilis [3])	MIC (Aspergillus flavus [4])	zone of inhibition at 100 µg/mL (Escherichia coli [5])	MIC (Pseudomonas aeruginosa [6])	zone of inhibition at 100 µg/mL (Candida albicans [7])	zone of inhibition at 100 µg/mL [8]	zone of inhibition at 100 µg/mL (Pseudomonas aeruginosa [9])	MIC (Aspergillus niger [10])	MIC (Klebsiella pneumoniae [12])	zone of inhibition at 100 µg/mL (Bacillus subtilis [13])	MIC [14]	zone of inhibition at 100 µg/mL (Klebsiella pneumoniae [15])	MIC (Candida albicans [16])	MIC (Staphylococcus aureus [17])	MIC (Aspergillus fumigatus [18])	zone of inhibition at 100 µg/mL (Staphylococcus aureus [19])	MIC (Escherichia coli [20])	zone of inhibition at 100 µg/mL (Aspergillus fumigatus [1])	further results
CC(=O)Nc1ccccc1Sc1ncccc1[N+](=O)[O-]	12 mm	12 mm	25 µg/mL (≈ 86.4 µM)	12.5 µg/mL (≈ 43.2 µM)	10 mm	12.5 µg/mL (≈ 43.2 µM)	12 mm	11 mm	12 mm	> 50 µg/mL	50 µg/mL (≈ 173 µM)	12 mm	25 µg/mL (≈ 86.4 µM)	11 mm	12.5 µg/mL (≈ 43.2 µM)	> 50 µg/mL	> 50 µg/mL	11 mm	> 50 µg/mL		inhibition zone (IZ) (Aspergillus fumigatus [1]): inactive; inhibition zone (IZ) (Aspergillus niger [11]): inactive
Fc1ccc2c(c1)Sc1cccnc1N2CCCCN1c2ccc(F)cc2Sc2cccnc21	12 mm	12 mm	12.5 µg/mL (≈ 25.5 µM)	25 µg/mL (≈ 51 µM)	11 mm	> 50 µg/mL	10 mm	12 mm	10 mm	50 µg/mL (≈ 102 µM)	50 µg/mL (≈ 102 µM)	12 mm	12.5 µg/mL (≈ 25.5 µM)	11 mm	> 50 µg/mL	25 µg/mL (≈ 51 µM)	> 50 µg/mL	11 mm	25 µg/mL (≈ 51 µM)	10 mm	zone of inhibition at 100 µg/mL (Aspergillus niger [11]): 11 mm
c1ccc2c(c1)Sc1cccnc1N2CCCCCCN1c2ccccc2Sc2cccnc21	12 mm	12 mm	25 µg/mL (≈ 51.8 µM)	25 µg/mL (≈ 51.8 µM)	12 mm	50 µg/mL (≈ 104 µM)	12 mm	13 mm	11 mm	25 µg/mL (≈ 51.8 µM)	25 µg/mL (≈ 51.8 µM)	12 mm	6.25 µg/mL (≈ 12.9 µM)	12 mm	12.5 µg/mL (≈ 25.9 µM)	6.25 µg/mL (≈ 12.9 µM)	> 50 µg/mL	13 mm	12.5 µg/mL (≈ 25.9 µM)	10 mm	zone of inhibition at 100 µg/mL (Aspergillus niger [11]): 11 mm
CC(=O)Nc1ccc(F)cc1Sc1ncccc1[N+](=O)[O-]	12 mm	10 mm	25 µg/mL (≈ 81.4 µM)	> 50 µg/mL	14 mm	6.25 µg/mL (≈ 20.3 µM)	14 mm	12 mm	14 mm	6.25 µg/mL (≈ 20.3 µM)	> 50 µg/mL	12 mm	25 µg/mL (≈ 81.4 µM)	11 mm	6.25 µg/mL (≈ 20.3 µM)	12.5 µg/mL (≈ 40.7 µM)	6.25 µg/mL (≈ 20.3 µM)	13 mm	6.25 µg/mL (≈ 20.3 µM)	16 mm	zone of inhibition at 100 µg/mL (Aspergillus niger [11]): 18 mm
C(=C\CN1c2ccccc2Sc2cccnc21)/CN1c2ccccc2Sc2cccnc21	11 mm	12 mm	> 50 µg/mL	12.5 µg/mL (≈ 27.6 µM)	11 mm	12.5 µg/mL (≈ 27.6 µM)	12 mm	10 mm	12 mm	12.5 µg/mL (≈ 27.6 µM)	50 µg/mL (≈ 110 µM)	10 mm	> 50 µg/mL	11 mm	12.5 µg/mL (≈ 27.6 µM)	12.5 µg/mL (≈ 27.6 µM)	6.25 µg/mL (≈ 13.8 µM)	12 mm	50 µg/mL (≈ 110 µM)	13 mm	zone of inhibition at 100 µg/mL (Aspergillus niger [11]): 12 mm
Brc1ccc2c(c1)Sc1cccnc1N2CCCCCCN1c2ccc(Br)cc2Sc2cccnc21	11 mm	12 mm	12.5 µg/mL (≈ 19.5 µM)	12.5 µg/mL (≈ 19.5 µM)	12 mm	6.25 µg/mL (≈ 9.76 µM)	11 mm	14 mm	13 mm	> 50 µg/mL	25 µg/mL (≈ 39 µM)	13 mm	6.25 µg/mL (≈ 9.76 µM)	12 mm	25 µg/mL (≈ 39 µM)	25 µg/mL (≈ 39 µM)	25 µg/mL (≈ 39 µM)	12 mm	6.25 µg/mL (≈ 9.76 µM)	11 mm	zone of inhibition at 100 µg/mL (Aspergillus niger [11]): 11 mm
Clc1ccc2c(c1)Sc1cccnc1N2CCCCN1c2ccc(Cl)cc2Sc2cccnc21	12 mm	12 mm	50 µg/mL (≈ 95.5 µM)	12.5 µg/mL (≈ 23.9 µM)	12 mm	50 µg/mL (≈ 95.5 µM)	11 mm	12 mm	11 mm	> 50 µg/mL	> 50 µg/mL	11 mm	6.25 µg/mL (≈ 11.9 µM)	11 mm	25 µg/mL (≈ 47.8 µM)	25 µg/mL (≈ 47.8 µM)	50 µg/mL (≈ 95.5 µM)	12 mm	12.5 µg/mL (≈ 23.9 µM)	11 mm	zone of inhibition at 100 µg/mL (Aspergillus niger [11]): 10 mm
Clc1ccc2c(c1)Sc1cccnc1N2CCCCCCN1c2ccc(Cl)cc2Sc2cccnc21	12 mm	10 mm	25 µg/mL (≈ 45.3 µM)	> 50 µg/mL	11 mm	25 µg/mL (≈ 45.3 µM)	12 mm	10 mm	12 mm	> 50 µg/mL	50 µg/mL (≈ 90.7 µM)	12 mm	> 50 µg/mL	11 mm	12.5 µg/mL (≈ 22.7 µM)	25 µg/mL (≈ 45.3 µM)	12.5 µg/mL (≈ 22.7 µM)	12 mm	50 µg/mL (≈ 90.7 µM)	12 mm	inhibition zone (IZ) (Aspergillus niger [11]): inactive
Fc1ccc2c(c1)Sc1cccnc1N2CCCCCCN1c2ccc(F)cc2Sc2cccnc21	12 mm	12 mm	25 µg/mL (≈ 48.2 µM)	12.5 µg/mL (≈ 24.1 µM)	12 mm	6.25 µg/mL (≈ 12.1 µM)	13 mm	12 mm	13 mm	50 µg/mL (≈ 96.4 µM)	50 µg/mL (≈ 96.4 µM)	12 mm	12.5 µg/mL (≈ 24.1 µM)	11 mm	6.25 µg/mL (≈ 12.1 µM)	25 µg/mL (≈ 48.2 µM)	25 µg/mL (≈ 48.2 µM)	12 mm	12.5 µg/mL (≈ 24.1 µM)	11 mm	zone of inhibition at 100 µg/mL (Aspergillus niger [11]): 10 mm
Brc1ccc2c(c1)Sc1cccnc1N2C/C=C/CN1c2ccc(Br)cc2Sc2cccnc21	11 mm	11 mm	25 µg/mL (≈ 41 µM)	> 50 µg/mL	12 mm	> 50 µg/mL	10 mm	11 mm	10 mm	> 50 µg/mL	50 µg/mL (≈ 81.9 µM)	11 mm	> 50 µg/mL	11 mm	> 50 µg/mL	25 µg/mL (≈ 41 µM)	12.5 µg/mL (≈ 20.5 µM)	12 mm	12.5 µg/mL (≈ 20.5 µM)	12 mm	inhibition zone (IZ) (Aspergillus niger [11]): inactive
CC(=O)Nc1ccc(Cl)cc1Sc1ncccc1[N+](=O)[O-]	12 mm	12 mm	25 µg/mL (≈ 77.2 µM)	25 µg/mL (≈ 77.2 µM)	12 mm	6.25 µg/mL (≈ 19.3 µM)	14 mm	13 mm	14 mm	6.25 µg/mL (≈ 19.3 µM)	6.25 µg/mL (≈ 19.3 µM)	12 mm	6.25 µg/mL (≈ 19.3 µM)	13 mm	6.25 µg/mL (≈ 19.3 µM)	25 µg/mL (≈ 77.2 µM)	12.5 µg/mL (≈ 38.6 µM)	12 mm	12.5 µg/mL (≈ 38.6 µM)	12 mm	zone of inhibition at 100 µg/mL (Aspergillus niger [11]): 14 mm
Clc1ccc(COC(Cn2ccnc2)c2ccc(Cl)cc2Cl)c(Cl)c1 (centres undefined) [MICONAZOLE]		17 mm		12.5 µg/mL (≈ 30 µM)			19 mm			6.25 µg/mL (≈ 15 µM)					6.25 µg/mL (≈ 15 µM)		6.25 µg/mL (≈ 15 µM)			15 mm	zone of inhibition at 100 µg/mL (Aspergillus niger [11]): 18 mm
